Experiments:
[1] = test system: NCI 60 cell line assay (leukemia, non-small cell lung cancer, colon cancer, CNS cancer, melanoma, ovarian cancer, renal cancer, prostate cancer, and breast …); assay: NCI 60 cell line assay, cell proliferation inhibition; assay type: cell-based, human; details: for anti-proliferative activity compared with largazole: 5 μM concentration; for inhibition of cell survival compared with largazole: at 5 μM; for inhibitory activity compared with largazole: at lower concentrations (below 5 μM)
Protocol: Understanding how these compounds affect cellular HDAC activity is important. Therefore, the biological effects of all these analogues were evaluated. As described in the examples, the analogues JA1-JA6, AA1-AA2, and RF1 were tested in the NCI 60 cell line assay, which includes leukemia, non-small cell lung cancer, colon cancer, CNS cancer, melanoma, ovarian cancer, renal cancer, prostate cancer, and breast cancer cell lines. […] The analogues were tested in the NCI 60 cell line assay using standard assay protocol. The NCI 60 cell line assay includes leukemia, non-small cell lung cancer, colon cancer, CNS cancer, melanoma, ovarian cancer, renal cancer, prostate cancer, and breast cancer cell lines. Results of the cell proliferation inhibition studies at a single dose of 10 μM are shown in FIGS. 16-21, and FIGS. 26-27, and results of the dose response studies for JA1, JA2, and J3 are shown in FIGS. 22-24. FIGS. 26-27 show the results of single dose response evaluations of AA1 and AA2, respectively, in the NCI 60 cell line assay.

PC-3 = details: cited from earlier work
LNCaP = details: cited from earlier work
HDAC isoforms = details: cited from earlier work

Compound | anti-proliferative activity compared with largazole [1] | inhibition of cell survival compared with largazole [1] | inhibitory activity compared with largazole [1] | other results
CCCCCCCC(=O)SCC/C=C/[C@@H]1CC(=O)NCc2cccc(n2)CN(C)CC(=O)N[C@@H](C(C)C)C(=O)O1 [JA3] | equivalent to largazole | nearly as effectively as largazole | less inhibitory activity | 
CCCCCCCC(=O)SCCC=CC1CC(=O)NCc2nc(cs2)C2=NC(C)(CS2)C(=O)NC(C(C)C)C(=O)O1 (centres unmarked) [C-2 epimer of largazole] |  |  |  | inhibition of viability compared with largazole (PC-3): more potent than largazole; inhibition of viability compared with largazole (LNCaP): more potent than largazole; inhibitory potency against HDAC isoforms (HDAC isoforms): sub-micromolar
CCCCCCCC(=O)SCC/C=C/[C@@H]1CC(=O)NCc2cccc(n2)-c2cccc(n2)C(=O)N[C@@H](C(C)C)C(=O)O1 [JA2] |  |  |  | potency rank among the analogues [1]: most potent analogue; anti-proliferative activity compared to largazole ([1]; at concentrations greater than 0.1 μM): higher anti-proliferative activity compared to largazole
CCCCCCCC(=O)SCC/C=C/[C@@H]1CC(=O)NCCOCCOCC(=O)N[C@@H](C(C)C)C(=O)O1 [JA1] | equivalent to largazole | nearly as effectively as largazole | less inhibitory activity | 

From patent US9469656B2, “HDAC inhibitors as anti-cancer agents” (The University of Toledo, priority 2014, dated 2016)
